US9840627B2, “Application of camptothecin and derivatives thereof as antifouling agent” (priority 2013, dated 2017)
Read-outs that look alike come from different tables or passages of the source.

How the values were obtained:
Format in all cases: in vivo
[1] = test system: cypris larvas of Balanus albicostatus; experiment: Inhibitory effect on the attachment of barnacles (cypris larvas); details: 48 h, membrane filtrated seawater
From the text: Barnacles are sessile Cirripedia with calcareous shells and widespread. They firmly attach to the surfaces of vessels and various offshore artificial facilities, and are one of the major marine fouling organisms as well as one of the major target organisms in the study of antifouling technology. Adults of Balanus albicostatus were collected from the rocks and piers at Baicheng Coast in Xiamen, and their cypris larvas were obtained by culturing in laboratory. It is the attachment of the cypris larvas that causes the barnacles to change from swimming life to attaching life. Thus, inhibition of the attachment of the cypris larvas can verify the antifouling activity of the compounds. CPT and 10-hydroxyl-CPT were dissolved in ethyl acetate respectively, and a series of concentration gradient were set according to the results of pre-experiment. 1 ml of each solution was taken to a petri dish respectively, 1 ml of ethyl acetate was taken to another blank petri dish serving as control group. After the solvents evaporated completely and the compounds were distributed evenly on the bottom surfaces and the side surfaces of the petri dishes, each petri dish was added with 10 ml of membrane filtrated seawater (filtrated by membrane with pore size of 0.22 μm, the same below). […]

[2] = test system: larvas of Bugula neritina; experiment: Inhibitory effect on the attachment of Bugula larvas; details: 48 h, membrane filtrated seawater
From the text: Bugulas are marine bryozoan and widespread in various sea areas in the world. They often attach to the surfaces of marine artificial facilities like mariculture netting, cages, vessels, buoys, etc., and they are important marine fouling organisms as well. Bugula neritina, also called multicellular Bugula, its adults were collected from the fish culture net bins in Western sea area of Xiamen and put into an aquarium filled with fresh seawater after back to the laboratory to induce the release of their swimming larvas. It is the attachment of their swimming larvas that causes the Bugulas to change from swimming life to attaching life. Thus, inhibition of the attachment of the swimming larvas can verify the antifouling activity of the compounds. CPT and 10-hydroxyl-CPT were dissolved in ethyl acetate respectively, and a series of concentration gradient were set according to the results of pre-experiment. 1 ml of each solution was taken to a petri dish respectively; 1 ml of ethyl acetate was taken to another blank petri dish serving as control group. After the solvents evaporated completely and the compounds were distributed evenly on the bottom surfaces and the side surfaces of the petri dishes, each petri dish was added with 10 ml of membrane filtrated seawater. […]

Perna viridis = experiment: Inhibitory effect on the attachment of mussels by produced byssal threads; details: 24 h culture at room temperature
From the text: Mussels are common bivalve in marine fouling biocenoses, widespread, and are one of the major target organisms in the study of marine antifouling technology. Mussels explore surfaces by their feet, looking for attachment substrate. If proper surfaces for attaching were found, mussels would produce byssal threads to attach to them. […] Perna viridis were collected from the fish net bins in offshore sea area of Zhangzhou, and in which those with shell length of 1.4˜2.4 cm were selected and washed with seawater, followed by gent cut-off of the byssal threads. And then the Perna viridis were washed with membrane filtrated seawater. CPT were first dissolved in a trace of dimethyl sulfoxide, and then mixed with membrane filtrated seawater to prepare a series of concentration gradient. 4 ml of each solution was taken into a 12-well plate, and each well was added with one Perna viridis. 4 ml of membrane filtrated seawater containing a trace of dimethyl sulfoxide and one Perna viridis were added into the control group. Each experimental group and control group had 8 paralleled groups. After 24-hours culture at room temperature, the amount of byssal threads produced by Perna viridis were observed, and the half inhibition concentration of CPT for the attachment of Perna viridis by produced byssal threads, EC50, were determined.

[3] = test system: marine large fouling organisms; details: for coverage ratio of fouling organisms (%, Mean ± SE): antifouling agent 20% by weight in paint, panels in sea area, Xiamen
Description: The panel test in natural sea area was carried out referring to the national standard GB/T5370-2007 “Method for testing antifouling panels in shallow submergence”. […] The tested panels were fixed in iron frames after the paints had dried, and they were hanged on the test buoyant rafts in the sea area near Dalipu Island in Xiamen in June, 2010. After the tested panels had been immersed in seawater up to 3, 6, 9 and 12 months, they were then photographed, and the coverage ratios of the fouling organisms in each coated sample areas were analyzed and counted. Herein, the coverage ratio of the fouling organisms is the ratio of surface area covered by marine large fouling organisms in the sample area divided by the whole surface area in the sample area (the same below), and the lower the value is, the higher the antifouling efficiency will be.

Row | Structure (SMILES) | half inhibition concentration (EC50) for the attachment of cypris larvas of Balanus albicostatus [1] | EC50 for the attachment of larvas of Bugula neritina [2] | EC50 for the attachment of Perna viridis by produced byssal threads (Perna viridis) | coverage ratio of fouling organisms (%, Mean ± SE) ([3]; after 3 months) | coverage ratio of fouling organisms (%, Mean ± SE) ([3]; after 6 months) | coverage ratio of fouling organisms (%, Mean ± SE) ([3]; after 9 months) | coverage ratio of fouling organisms (%, Mean ± SE) ([3]; after 12 months) | antifouling term ([3]; paints prepared with CPT as antifouling agent, panel test in sea area)
1 | CC[C@@]1(O)C(=O)OCc2c1cc1n(c2=O)Cc2cc3ccccc3nc2-1 [CPT, Camptothecin (CPT)] | 1.73 µg/mL | 15.02 µg/mL | 10.78 µg/mL | 0.15 ± 0.12% | 11.6 ± 6.68% | 9.03 ± 2.64% | 39.67 ± 10.43% | up to 12 months
2 | [Cu].[O]=[Cu] [Cu2O, cuprous oxide, reference compound] | – | – | – | 7.23 ± 2.02% | 91.75 ± 2.90% | 70.91 ± 13.40% | 98.88 ± 0.48% | –
3 | CC[C@@]1(O)C(=O)OCc2c1cc1n(c2=O)Cc2cc3cc(O)ccc3nc2-1 [10-hydroxyl-CPT] | 1.78 µg/mL | 5.93 µg/mL | – | – | – | – | – | –
